Experimental data taken from ChEMBL document CHEMBL5316353, “Antitarget, Anti-SARS-CoV-2 Leads, Drugs, and the Drug Discovery-Genetics Alliance Perspective” (J Med Chem, 2023).
Square brackets hold non-standard residues; d marks the D form. Peptide text beside a SMILES is read from it. βAla = NCCC(=O)O

What was measured:
[1] = molecular target: Replicase polyprotein 1ab (Severe acute respiratory syndrome coronavirus 2, UniProt P0DTD1); experiment: Inhibition of SARS-CoV-2 MPro
SARS-CoV-2 [2] = type: functional, organism-based; conditions: Severe acute respiratory syndrome coronavirus 2, HPAEpiC
SARS-CoV-2 [3] = type: functional, organism-based; conditions: Severe acute respiratory syndrome coronavirus 2, Huh-7
[4] = tested on: Middle East respiratory syndrome-related coronavirus; experiment: Antiviral activity against MERS-CoV infected in human Huh-7 cells assessed as reduction of viral growth; type: functional, organism-based
[5] = tested on: Middle East respiratory syndrome-related coronavirus; type: functional, organism-based, Vero E6; conditions: Vero C1008
[6] = tested on: Middle East respiratory syndrome-related coronavirus; type: functional, organism-based; conditions: Calu-3
SARS-CoV-2 [7] = experiment: microbe, parasite or virus in culture; conditions: Severe acute respiratory syndrome coronavirus 2
Procathepsin L = Procathepsin L (Homo sapiens, UniProt P07711); experiment: Inhibition of recombinant cathepsin L (unknown origin)
SARS-CoV-2 [8] = type: functional, organism-based; conditions: Severe acute respiratory syndrome coronavirus 2
[9] = molecular target: Replicase polyprotein 1ab (Severe acute respiratory syndrome-related coronavirus, UniProt P0C6X7); experiment: Binding affinity to SARS-CoV-1 MPro assessed as inhibition constant
[10] = Inhibition of HCoV-229E MPro; parameters: species or system Human coronavirus 229E
[11] = tested on: Middle East respiratory syndrome-related coronavirus; experiment: Antiviral activity against MERS-CoV assessed as inhibition of viral growth by cell-cell fusion assay; type: functional, organism-based
[12] = tested on: Middle East respiratory syndrome-related coronavirus; type: functional, organism-based, Vero E6; conditions: Vero C1008; remark: listed apart in the source

Chain of Procathepsin L (P07711 whole entry): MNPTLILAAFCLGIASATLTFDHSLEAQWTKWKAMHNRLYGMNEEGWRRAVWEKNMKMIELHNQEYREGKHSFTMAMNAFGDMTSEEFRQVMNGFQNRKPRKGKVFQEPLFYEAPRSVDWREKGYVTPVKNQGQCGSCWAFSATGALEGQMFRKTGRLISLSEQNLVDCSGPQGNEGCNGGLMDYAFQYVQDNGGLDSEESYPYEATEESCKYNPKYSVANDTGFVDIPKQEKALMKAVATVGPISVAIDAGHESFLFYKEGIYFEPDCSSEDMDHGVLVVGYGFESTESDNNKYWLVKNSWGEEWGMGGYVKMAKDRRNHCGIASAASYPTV

For O=C[C@H](C[C@@H]1CCNC1=O)NC(=O)[C@H](Cc1ccccc1)NC(=O)c1cc2ccccc2[nH]1, which IC50 [1] is on record?
Its IC50 is 34 nM.

What does the source list for CC1(C)[C@@H]2[C@@H](C(=O)N[C@H](C=O)C[C@@H]3CCNC3=O)N(C(=O)COc3ccc(OC(F)(F)F)cc3)C[C@@H]21?
EC50 (SARS-CoV-2 [2]): 1.2 nM; EC50 (SARS-CoV-2 [3]): 35.3 nM

Which EC50 [4] does the source give for CC(C)C[C@H](NC(=O)[C@H](CCC(=O)O)NC(=O)[C@H](CCC(=O)O)NC(=O)[C@H](CC(C)C)NC(=O)[C@H](CCCCN)NC(=O)[C@H](CCCCN)NC(=O)[C@H](CO)NC(=O)[C@H](CC(C)C)NC(=O)[C@H](CCC(=O)O)NC(=O)[C@H](CCC(=O)O)NC(=O)[C@H](CC(C)C)NC(=O)[C@H](CCCCN)NC(=O)[C@H](CCCCN)NC(=O)[C@H](CO)NC(=O)[C@H](CC(C)C)NC(=O)[C@H](CCC(=O)O)NC(=O)[C@H](CCC(=O)O)NC(=O)[C@H](CC(C)C)NC(=O)[C@H](CCCCN)NC(=O)[C@H](CCCCN)NC(=O)[C@H](CO)NC(=O)[C@H](CC(C)C)NC(=O)[C@H](CCC(=O)O)NC(=O)[C@H](CCC(=O)O)NC(=O)[C@H](CC(C)C)NC(=O)[C@H](CCCCN)NC(=O)[C@H](CCCCN)NC(=O)[C@H](CO)NC(=O)[C@H](CC(C)C)NC(=O)[C@H](CCC(=O)O)NC(=O)[C@H](CCC(=O)O)NC(=O)[C@@H](N)CC(C)C)C(=O)N[C@@H](CO)C(=O)N[C@@H](CCCCN)C(=O)N[C@@H](CCCCN)C(=O)NCCC(=O)N[C@@H](CCCCN)C(=O)O (H-LEELSKKLEELSKKLEELSKKLEELSKKLEELSKK[βAla]K-OH) here?
The EC50 was 240 nM.

With CC[C@H](C)[C@H](NC(=O)[C@H](Cc1ccc(O)cc1)NC(=O)[C@H](CO)NC(=O)[C@H](CCC(=O)O)NC(=O)[C@H](CC(N)=O)NC(=O)[C@H](CC(C)C)NC(=O)[C@H](C)NC(=O)[C@H](CCCCN)NC(=O)[C@@H](NC(=O)[C@@H](NC(=O)[C@H](CCC(N)=O)NC(=O)[C@H](CCC(N)=O)NC(=O)[C@H](CC(C)C)NC(=O)[C@H](CO)NC(=O)[C@H](CCCNC(=N)N)NC(=O)[C@H](CCSC)NC(=O)[C@H](CCC(=O)O)NC(=O)[C@H](Cc1ccc(O)cc1)NC(=O)[C@H](CCC(=O)O)NC(=O)[C@H](CC(C)C)NC(=O)[C@H](CC(=O)O)NC(=O)[C@H](CC(C)C)NC(=O)[C@H](CC(C)C)NC(=O)[C@@H](NC(=O)[C@@H](NC(=O)[C@H](CC(N)=O)NC(=O)[C@@H](NC(=O)[C@H](CCC(N)=O)NC(=O)[C@@H](NC(=O)[C@H](CC(C)C)NC(=O)[C@@H](N)CO)[C@@H](C)O)[C@@H](C)CC)[C@@H](C)O)[C@@H](C)O)C(C)C)C(C)C)C(=O)N[C@@H](CC(=O)O)C(=O)N[C@@H](CC(C)C)C(=O)N[C@@H](CCCCN)C(=O)N[C@@H](CCC(=O)O)C(=O)N[C@@H](CC(C)C)C(=O)O as the compound, how does the IC50 [5] read?
The IC50 was 550 nM.

And the IC50 [6]?
Its IC50 is 550 nM.

With CC(=O)N[C@@H]1[C@H](Oc2c3cc4cc2Oc2ccc(cc2Cl)[C@@H](O[C@@H]2O[C@@H](CO)[C@@H](O)[C@H](O)[C@@H]2NC(C)=O)[C@@H]2NC(=O)[C@H](NC(=O)[C@@H]4NC(=O)[C@H]4NC(=O)[C@@H](Cc5ccc(c(Cl)c5)O3)NC(=O)[C@H](N)c3ccc(O)c(c3)Oc3cc(O)cc4c3)c3ccc(O)c(c3)-c3c(O[C@H]4O[C@H](CO)[C@@H](O)[C@@H](O)[C@@H]4O)cc(O)cc3[C@@H](C(=O)O)NC2=O)O[C@@H](CO)[C@@H](O)[C@@H]1O as the compound, how does the IC50 (SARS-CoV-2 [7]) read?
Its IC50 is 1600 nM.

Which IC50 (Procathepsin L) does the source give for CCOC(=O)[C@H]1OC1C(=O)N[C@@H](CC(C)C)C(=O)NCCC(C)C (some centres undefined) here?
Its IC50 is 180 nM.

With CC[C@H](C)[C@H](N)C(=O)N[C@@H](CCC(=O)O)C(=O)N[C@@H](CCC(=O)O)C(=O)N[C@H](C(=O)N[C@@H](CO)C(=O)N[C@@H](CCCCN)C(=O)N[C@@H](CCCCN)C(=O)N[C@H](C(=O)N[C@@H](CCC(=O)O)C(=O)N[C@@H](CCC(=O)O)C(=O)N[C@H](C(=O)N[C@@H](CO)C(=O)N[C@@H](CCCCN)C(=O)N[C@@H](CCCCN)C(=O)N[C@H](C(=O)N[C@@H](CCC(=O)O)C(=O)N[C@@H](CCC(=O)O)C(=O)N[C@H](C(=O)N[C@@H](CO)C(=O)N[C@@H](CCCCN)C(=O)N[C@@H](CCCCN)C(=O)N[C@H](C(=O)N[C@@H](CCC(=O)O)C(=O)N[C@@H](CCC(=O)O)C(=O)N[C@H](C(=O)N[C@@H](CO)C(=O)N[C@@H](CCCCN)C(=O)N[C@@H](CCCCN)C(=O)N[C@H](C(=O)N[C@@H](CCC(=O)O)C(=O)N[C@@H](CCC(=O)O)C(=O)N[C@H](C(=O)N[C@@H](CO)C(=O)N[C@@H](CCCCN)C(=O)N[C@@H](CCCCN)C(=O)NCCC(=O)N[C@@H](CCCCN)C(=O)O)[C@@H](C)CC)[C@@H](C)CC)[C@@H](C)CC)[C@@H](C)CC)[C@@H](C)CC)[C@@H](C)CC)[C@@H](C)CC)[C@@H](C)CC)[C@@H](C)CC (H-IEEISKKIEEISKKIEEISKKIEEISKKIEEISKK[βAla]K-OH) as the compound, how does the EC50 [4] read?
The EC50 was 100 nM.

For NC1(C(=O)N[C@@H](CCO)c2ccc(Cl)cc2)CCN(c2nc[nH]c3nccc2-3)CC1 [CAPIVASERTIB], which IC50 (SARS-CoV-2 [8]) is on record?
The IC50 was 2330 nM.

Which Ki [9] does the source give for COc1cccc2[nH]c(C(=O)N[C@@H](CC(C)C)C(=O)N[C@@H](C[C@@H]3CCNC3=O)C(=O)CO)cc12 [PF-00835231] here?
Its Ki is 4.94 nM.

And the IC50 [10]?
The IC50 was 4 nM.

With CC[C@H](C)[C@H](NC(=O)[C@H](Cc1ccc(O)cc1)NC(=O)[C@H](CO)NC(=O)[C@H](CCC(=O)O)NC(=O)[C@H](CC(N)=O)NC(=O)[C@H](CC(C)C)NC(=O)[C@H](C)NC(=O)[C@H](CCCCN)NC(=O)[C@@H](NC(=O)[C@@H](NC(=O)[C@H](CCC(N)=O)NC(=O)[C@H](CCC(N)=O)NC(=O)[C@H](CC(C)C)NC(=O)[C@H](CO)NC(=O)[C@H](CC(C)C)NC(=O)[C@H](CCSC)NC(=O)[C@H](CCC(=O)O)NC(=O)[C@H](Cc1ccc(O)cc1)NC(=O)[C@@H](NC(=O)[C@H](CC(C)C)NC(=O)[C@H](CC(=O)O)NC(=O)[C@H](CC(C)C)NC(=O)[C@H](CC(C)C)NC(=O)[C@@H](NC(=O)[C@@H](NC(=O)[C@H](CC(N)=O)NC(=O)[C@@H](NC(=O)[C@H](CCC(N)=O)NC(=O)[C@@H](NC(=O)[C@H](CC(C)C)NC(=O)[C@@H](N)CO)[C@@H](C)O)[C@@H](C)CC)[C@@H](C)O)[C@@H](C)O)[C@@H](C)O)C(C)C)C(C)C)C(=O)N[C@@H](CC(=O)O)C(=O)N[C@@H](CC(C)C)C(=O)N[C@@H](CCCCN)C(=O)N[C@@H](CCCCN)C(=O)N[C@@H](CCC(=O)O)C(=O)N[C@@H](CC(C)C)C(=O)O as the compound, how does the IC50 [11] read?
Its IC50 is 500 nM.

And the IC50 [12]?
Its IC50 is 600 nM.
